The text below walks through data of patent US7678833B2 (Allium Vitalis Incorporated, priority 2006, dated 2010).

Entries after “also recorded” stand apart in the source; their conditions may differ. Read-outs that look alike come from different tables or passages of the source.

Data set [1] deals with trypsin enzyme inhibitor. The conditions noted are these: soy flour, cysteine 2% by weight, 65 degrees C. for 1 hour; cited from earlier work.
For data set [2] the following is noted: HIV patients, 7 months, 600 mg/day to 3600 mg/day; cited from earlier work.
The conditions of data set [3]: 8 weeks, 8000 mg/day; cited from earlier work.
For data set [4] the following is noted: in vivo; cited from earlier work.
The test system of data set [5] is red blood cells (RBCs). The experiment in a line: SAMC incubated with red blood cells: formation and localization of AllylSH and DADS. It counts as cell-based. Conditions: for extracellular AllylSH concentration: RBCs with 0.5 mM SAMC. As for the experimental part:
For these experiments, 0.25 ml of packed RBCs were suspended in 1.75 ml of phosphate buffer solution (PBS) along with an initial concentration 0.5 mM of SAMC.
The experimental results are graphed in FIG. 3.
The significant effect of glucose is due in part to the energy requirement for the reduction of GSSG to GSH by glutathione reductase, and the need for this “reductive power” to increase the concentration of thiols relative to the concentration of disulfides.

A short description of data set [6]: plasma albumin level as measure of plasma thiol/disulfide redox (applicant). It counts as in vivo, human. From the text: Subsequently, an alternative, simpler assay procedure for the thiol/disulfide ratio was found in the literature. Other researchers had determined that the level of plasma albumin correlates linearly with the thiol/disulfide redox (BLOOD92:59, in which paper this redox relationship is expressed by the cystine/thiol ratio).
This method of determination of the plasma redox is of great interest to the applicant because the albumin concentration is one of the standard measurements performed in medical lab reports. This meant that historical data was available that could show the age-related decline in albumin level and confirm its reversal with the administration of dietary supplement capsules containing protein bound allyl mercaptan. It could also be used to confirm that the effect was reversible (by discontinuing the administration of the capsules) and repeatable (by the resumption of the administration of the capsules).
The historical albumin levels for the applicant are as follows:
Over the next 3 months, an experiment was performed to determine whether this effect was reversible, and then to see if the effect was repeatable:
The age related initial decline of approximately −0.05 per year is also shown extended by a dotted trend line. The presumed departure from the trend that occurred when the supplement use was started is indicated by the first solid line segment.

Data set [7] concerns cells. Conditions: cited from earlier work.
The conditions of data set [8]: n-octanol/water; cited from earlier work.
Data set [9] concerns mucosal cell. The conditions noted are these: within 3 hours; cited from earlier work.
The conditions of data set [10]: first hour after consumption; cited from earlier work.
For data set [11] the following is noted: cited from earlier work.
The test system of data set [12] is acetaminophen. Conditions: mice, cited from earlier work.
The test system of data set [13] is heapatocytes. The conditions noted are these: hepatocytes exposed to acetaminophen, among 8 cysteine prodrugs tested; cited from earlier work.

Turning to `N[C@@H](CS)C(=O)O` [cysteine, Cysteine], in data set [1], the “deactivation of trypsin enzyme inhibitor” value is reported as “over 90%”.

As to `CC(=O)N[C@@H](CS)C(=O)O` [NAC, N-acetylcysteine], the plasma albumin increase entry in data set [2] is “approximately 5%”. In addition, in [3], the toxicity entry is on record as “no reported toxicity” and the “whole blood glutathione increase” value is listed as “approximately 10%”. Besides, the toxicity entry in data set [4] is “relatively non-toxic”.

As for `C=CCS` [AllylSH, AllylThiol], in [5], the membrane permeability result was “membrane permeable”. Also, the figures for the “extracellular AllylSH concentration” value in data set [5] (fed glucose) and in data set [5] (glucose starved) were “continued to rise significantly” and “no increase in AllylSH after the initial rise”, respectively. Further, the albumin level in [6] (180 mg AllylSH each day) is 5.1 g/dL; in [6] (+1 mo., AllylSH consumption discontinued) it was 4.9 g/dL; in data set [6] (donor one, ~20 mg AllylSH each day), 5.0 g/dL; in data set [6] (donor two, ~20 mg AllylSH each day) it was 5.0 g/dL; in data set [6] (second +1 mo., AllylSH consumption still discontinued) it was 4.5 g/dL; in data set [6] (third +1 mo., consumption resumed at 180 mg AllylSH/day), 4.7 g/dL. The albumin level in [6] (~5 mg AllylSH/day) came to 4.6 g/dL.

`C=CCSSC[C@H](N)C(=O)O` [SAMC, S-AllylMercaptoCysteine]: the “total glutathione level of cells” value in [7] is “significantly increase; also recorded: significant increases”. Further, the “intracellular formation of AllylSH” value in data set [5] (RBCs, 0.5 mM SAMC, 10 and 30 minutes, with glucose (10 mM) vs without glucose) was “significantly higher”.

`Cc1c(C)c2c(c(C)c1O)CC[C@@](C)(CCC[C@H](C)CCC[C@H](C)CCCC(C)C)O2` [alpha-tocopherol, reference compound]: the partition coefficient in data set [8] is on record as 550.

For `C=CCSSCC=C` [DADS, Diallyl Disulfide], in data set [8], the partition coefficient is 25.

Consider `[AsH3]` [arsenic], for which the “glutathione concentration in the mucosal cell” value in data set [9] is “twice the normal concentration”. The “excreted directly from the liver to the bile” value in data set [10] is reported as roughly 40%.

With sodium arsenate, the liver glutathione level in [11] (protein deficient (6%) rats, control 74) is 134 micrograms per gram; in data set [11] (well fed rats (18% protein in the diet), control 88) it was 123 micrograms per gram.

Regarding `O=C1N[C@H](C(=O)O)CS1` [OTZ, L-2-Oxo-thiazolidine], in data set [4], the toxicity result was “relatively non-toxic”.

Regarding D-glucose-L-cysteine [DGC], the “hepatic injury from acetaminophen administration” value is listed as “significantly reduced” in [12] (administered 4 hours previously) and “not effective” in data set [12] (administered simultaneously). Also, the “raising the GSH level” value in data set [13] is given as “most effective”.
